Reference: US20060281100A1, “Thiotriphosphate nucleotide dye terminators” (priority 2005, published 2006)

Assay: Spectral measurements: absorbance and emission spectra, Beckman DU7400 spectrophotometer, water media
Assay type: physicochemical
Experimental: Unless otherwise stated, ultraviolet spectra (UV) were recorded for samples dissolved in MeOH or water contained in a one cm path length quartz cell using a Beckman DU-7400 spectrophotometer.

Q: Which “Abs (H2O), Cyanine Dyes” value (absorbance maximum of the free cyanine dye in water) does the source give for `CCN1/C(=C/C=C/C=C/C2=[N+](CCCCCC(=O)O)c3ccc(S(=O)(=O)O)cc3C2(C)C)C(C)(C)c2cc(S(=O)(=O)[O-])ccc21` [Cy5] here?
A: 649 nm

Q: And the “Em (H2O)” value (emission maximum in water, column stands after the cyanine dye columns)?
A: 675 nm
